Data taken from PMC3678512, “Synthesis and physicochemical characterization of novel phenotypic probes targeting the nuclear factor-kappa B signaling pathway” (Beilstein Journal of Organic Chemistry, 2013).
pIC50: −log10 of the molar value. Values after ≈ are worked out from the molar mass of the structure shown. Read-outs that look alike come from different tables or passages of the source.

Assays:
[1] = PAMPA (parallel artificial membrane permeability assay); assay type: in vitro ADME
Method: (§1) The probes were evaluated using known in vitro ADME/T assays to understand their overall pharmacological properties (Table 2). […] The PAMPA (parallel artificial membrane permeability assay) assay is used as an in vitro model of passive, transcellular permeability. An artificial membrane immobilized on a filter is placed between a donor and acceptor compartment. […] It is not yet known whether it represents a species specific CPY450 inhibitor.

NOD2 = assay: MDP-stimulated signal transduction in NOD2 reporter cell lines; assay type: cell-based; settings: reporter cell lines with low or overexpressed NOD2
[2] = test system: TNF-α-dependent IL-8 secretion in MCF-7 cells; assay: TNF-α-dependent IL-8 secretion in MCF-7 cells; assay type: cell-based
[3] = test system: non-NOD-stimulated NF-κB pathways; assay: Non-NOD-stimulated NF-κB pathway reporter assays (TNF-α, doxorubicin, PMA/ionomycin); assay type: cell-based; settings: doxorubicin and PMA/ionomycin reporter assays
Aqueous solubility = assay type: physicochemical; settings: for solubility: aqueous medium
Method: as §1

[4] = Hepatic microsome stability, human; assay type: in vitro ADME; settings: human, compound at 1 μM, 60 min
Method: as §1

[5] = Hepatic microsome stability, mouse; assay type: in vitro ADME; settings: compound at 1 μM, 60 min
Method: as §1

[6] = test system: NOD1 (γ-tri-DAP) dependent IL-8 secretion; assay: NOD1 (γ-tri-DAP) dependent IL-8 secretion; assay type: cell-based
NOD1 = molecular target: T1, NOD1 (Homo sapiens, UniProt Q9Y239); assay: γ-tri-DAP-stimulated luciferase production in HEK 293T cells (NF-κB-linked reporter assay); assay type: cell-based; settings: HEK 293T cells with endogenous NOD1, NF-κB-linked reporter; read-out: IC50, inhibition of γ-tri-DAP-stimulated luciferase production
T1 construct: luciferase production in HEK 293T cells, which has endogenous NOD1 levels; endogenous in cells; host or cells: HEK 293T
T1 sequence (Q9Y239 1-953): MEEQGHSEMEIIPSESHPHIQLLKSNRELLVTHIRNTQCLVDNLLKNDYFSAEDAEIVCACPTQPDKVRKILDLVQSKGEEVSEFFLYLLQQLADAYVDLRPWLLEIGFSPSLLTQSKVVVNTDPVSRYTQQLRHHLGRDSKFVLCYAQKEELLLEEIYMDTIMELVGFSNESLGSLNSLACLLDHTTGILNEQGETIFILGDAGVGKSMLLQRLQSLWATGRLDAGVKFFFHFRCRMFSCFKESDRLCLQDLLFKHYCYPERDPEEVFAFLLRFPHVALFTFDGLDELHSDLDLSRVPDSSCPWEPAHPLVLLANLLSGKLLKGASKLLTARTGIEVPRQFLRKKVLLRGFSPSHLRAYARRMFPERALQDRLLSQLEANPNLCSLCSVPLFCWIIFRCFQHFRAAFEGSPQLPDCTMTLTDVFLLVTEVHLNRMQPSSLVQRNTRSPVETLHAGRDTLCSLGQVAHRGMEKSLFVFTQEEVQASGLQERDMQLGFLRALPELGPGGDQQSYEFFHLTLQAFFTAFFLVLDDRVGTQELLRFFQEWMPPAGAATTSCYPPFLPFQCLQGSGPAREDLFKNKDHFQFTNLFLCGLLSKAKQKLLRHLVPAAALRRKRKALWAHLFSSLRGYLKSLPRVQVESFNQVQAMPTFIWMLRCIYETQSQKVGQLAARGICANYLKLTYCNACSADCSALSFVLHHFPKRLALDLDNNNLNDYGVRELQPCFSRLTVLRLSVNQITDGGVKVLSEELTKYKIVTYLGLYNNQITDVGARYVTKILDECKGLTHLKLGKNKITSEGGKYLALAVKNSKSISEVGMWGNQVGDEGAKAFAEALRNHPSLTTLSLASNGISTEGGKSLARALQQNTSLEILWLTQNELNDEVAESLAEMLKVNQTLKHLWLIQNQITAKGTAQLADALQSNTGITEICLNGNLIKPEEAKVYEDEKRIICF

[7] = Hepatic toxicity in immortalized human hepatocytes; assay type: cell-based; settings: Fa2N-4 immortalized human hepatocytes, read-out: Hepatic toxicity LC50
Method: as §1

[8] = test system: NOD2-dependent IL-8 secretion in MCF-7 cells; assay: NOD2-dependent IL-8 secretion in MCF-7 cells; assay type: cell-based

Compound: C/C=C/Cn1c(SCCCc2ccccc2)nc2c1c(=O)[nH]c(=O)n2C [Probe 17]
- PAMPA Pe, donor pH 5.0 ([1]; donor pH 5.0, acceptor pH 7.4, compound at 50 μM): 1269 10^−6 cm/s
- PAMPA Pe, donor pH 6.2 ([1]; donor pH 6.2, acceptor pH 7.4, compound at 50 μM): 1516 10^−6 cm/s
- PAMPA Pe, donor pH 7.4 ([1]; donor pH 7.4, acceptor pH 7.4, compound at 50 μM): 1344 10^−6 cm/s
- Selectivity for NOD1-dependent over MDP-stimulated (NOD2-dependent) signal transduction (NOD2): > 8 fold
- Inhibition of TNF-α-dependent IL-8 secretion [2]: neither inhibited
- Selectivity over non-NOD-stimulated NF-κB pathways [3]: selective
- Solubility (in words) (Aqueous solubility; across pH 5 to 7.4): lowest solubility
- solubility (Aqueous solubility; aqueous buffer, pH 5.0, read-out: Aqueous solubility pH 5.0): 1.5 µM (≈ 0.556 µg/mL)
- solubility (Aqueous solubility; pH 6.2, aqueous buffer, read-out: Aqueous solubility pH 6.2): 1.8 µM (≈ 0.667 µg/mL)
- solubility (Aqueous solubility; pH 7.4, aqueous buffer, read-out: Aqueous solubility pH 7.4): 1.7 µM (≈ 0.63 µg/mL)
- Hepatic microsome stability, human (% remaining) [4]: 8.8 % remaining
- Hepatic microsome stability, mouse (% remaining) [5]: 0.86 % remaining
- Inhibition of NOD1 (γ-tri-DAP) dependent IL-8 secretion [6]: selectively inhibited IL-8 secretion
- pIC50 (NOD1): 5.81
- CC50 [7]: > 50 µM
- Inhibition of NOD2-dependent IL-8 secretion [8]: neither inhibited
